Measurements: patent US8524809B2, “Low odor compositions and methods to attain low odor compositions” (Rohm and Haas Company, priority 2010, dated 2013)

Experiments:
[1] = NaBH4 treatment: headspace composition of acrylic latex AC261; conditions: 1 week, 500 ppm NaBH4 (with 60 ppm CALBL where combined)
Description: Headspace VOC content in aqueous compositions was determined by a method based on ASTM 3960: Standard Practice for Determining Volatile Organic Compound (VOC) Content of Paints and Related Coatings. This method uses static headspace sampling/GC-MS at 33° C. to determine the headspace concentrations of compounds above aqueous emulsion polymers or waterborne paints.
Weigh 5 g of each sample into 22 ml headspace vials with aluminum caps and crimp the cap tightly. Repeat the procedure with water blanks to be run, at a minimum, at the beginning and end of a sequence of samples. Analyze the samples via headspace GC-MS. Integrate all peaks in the resulting chromatogram that have a signal greater than five times the root-mean-square baseline noise. Once a satisfactory separation of the volatiles is achieved, mass spectral analysis and/or retention time matching against known compounds is used to identify the compounds detected. Determine the concentration of each calibrated compound in the sample headspace using the linear-least-squares equation from the calibration plot for that compound. Levels of the component in the headspace are reliable to 0.1 ppm by the GC-MS technique.

[2] = Esterase and nucleophilic reagent, larger scale vinyl acetate-acrylic latex; conditions: VAc-acrylic latex, 50 ppm N51032 + 50 ppm reagent
Description: The combined effect of carboxylesterase (50 ppm N51032) and nucleophilic reagent (50 ppm in each case) was evaluated in a larger scale vinyl acetate-acrylic latex sample, Table 27, below. The combined addition was made into a 1 gallon reaction vessel, with stirring, after the polymer synthesis and chase, and while the contents were at 50° C. The contents were then allowed to cool and headspace concentrations were analyzed after 1 day at room temperature, and after 5 days at room temperature.

[3] = Nucleophilic reagents: aldehyde content in vinyl acetate-acrylic latex; conditions: Rovace 9900 pre-treated 1 week with 50 ppm N51032; reagent 50 ppm, 55° C. 2 hours, then 1 week RT
Description: The latex samples were first treated with a carboxylesterase enzyme (50 ppm of N51032) for 1 week to remove residual esters and also to convert residual vinyl acetate to acetaldehyde (the esterase produces vinyl alcohol, which rearranges to form acetaldehyde). Each sample was then stirred at 55° C. for 2 hours with the reagent shown below in Table 26 (added at a level of 50 ppm), and then left at room temperature for 1 week before evaluating levels of aldehyde in the headspace composition (GC-MS, 33° C.).

SMILES: [BH4-].[Na+] [NaBH4, sodium borohydride]
- Level of 2-butenoic acid, butyl ester in headspace [1]: 65 ppm
- Level of 2-methyl-3-hexanone in headspace [1]: 0 ppm
- Level of Acetone in headspace [1]: 0 ppm
- Level of Butanal in headspace [1]: 0 ppm
- Level of Isobutyraldehyde in headspace [1]: 0 ppm
- Level of benzaldehyde in headspace [1]: 0 ppm
- Level of butyl acetate in headspace [1]: 104 ppm
- Level of butyl acrylate in headspace [1]: 67 ppm
- Level of butyl propionate in headspace [1]: 207 ppm
- Level of methyl isobutyrate in headspace [1]: 17 ppm

SMILES: O=C1CC(=O)NC(=O)N1 [B, barbituric acid]
- Acetaldehyde Headspace Concentration ([2]; 1 Day): 237 ppm
- Acetone Headspace Concentration ([2]; 1 Day): 392 ppm
- Butyl acetate Headspace Concentration ([2]; 1 Day): 1 ppm
- Ethanol Headspace Concentration ([2]; 1 Day): 10 ppm
- Vinyl acetate Headspace Concentration ([2]; 1 Day): 0 ppm
- butanal Headspace Concentration ([2]; 1 Day): 0.4 ppm
- l-butanol Headspace Concentration ([2]; 1 Day): 18 ppm
- t-butanol Headspace Concentration ([2]; 1 Day): 265 ppm
- Acetaldehyde Headspace Concentration ([2]; 5 Days): 140 ppm
- Acetone Headspace Concentration ([2]; 5 Days): 418 ppm
- Butyl acetate Headspace Concentration ([2]; 5 Days): 1 ppm
- Ethanol Headspace Concentration ([2]; 5 Days): 23 ppm
- Vinyl acetate Headspace Concentration ([2]; 5 Days): 0 ppm
- butanal Headspace Concentration ([2]; 5 Days): 0.6 ppm
- l-butanol Headspace Concentration ([2]; 5 Days): 21 ppm
- t-butanol Headspace Concentration ([2]; 5 Days): 285 ppm
- Acetaldehyde Headspace Concentration [3]: 0 ppm
- Acetone Headspace Concentration [3]: 287 ppm
- Ethanol Headspace Concentration [3]: 26 ppm
- butanal Headspace Concentration [3]: 0 ppm
- l-butanol Headspace Concentration [3]: 53 ppm
- t-butanol Headspace Concentration [3]: 300 ppm
